Test results as given in patent EP0414533A1, “Use of iodopropargyl esters of alpha-amino acid derivatives as antimicrobial agents” (ROHM AND HAAS COMPANY, priority 1989, dated 1991).
Structures can show the parent of a compound that is named as a salt. Where two headings read alike, the source gives them in different places.

Experiments:
Aspergillus niger (ANIG) = test: Minimum inhibitory concentration (MIC), broth two-fold serial dilution test; assay type: cell-based; details: Aspergillus niger, read-out: MIC (F) ANIG, M9G (minimal salts media with glucose); Table IIIc, iodopropargyl esters of peptides
[1] = system: Staphylococcus aureus (SAUR); test: as above; details: Staphylococcus aureus, read-out: MIC (G+) SAUR, M9G (minimal salts media with glucose); Table IIIc, iodopropargyl esters of peptides
THREE FUNGI = test: MIC test against three fungi in Mycophile Broth, pH 5.0, read after 8 days (Table VII); assay type: cell-based; details: 192 h
UST = test: In-vitro plant fungicide test; assay type: cell-based; design: inhibition of growth: concentration or dose not given beside the values; details: Table IVb, read-out: % Control at (ppm) indicated UST
[2] = system: Pseudomonas aerugenosa (PSAE); test: Minimum inhibitory concentration (MIC), broth two-fold serial dilution test; details: Pseudomonas, read-out: MIC (G-) PSAE, M9G (minimal salts media with glucose); Table IIIc, iodopropargyl esters of peptides
Fusarium roseum (FUS) = test: In-vitro plant fungicide test; assay type: cell-based; details: Fusarium sambucinum
Rhizoctonia solani (RHI) = test: In-vitro plant fungicide test; assay type: cell-based; details: Rhizoctonia solani
ALT = test: In-vitro plant fungicide test; assay type: cell-based; design: inhibition of growth: concentration or dose not given beside the values; details: Table IVb, read-out: % Control at (ppm) indicated ALT
Piricularia oryzae (PIR) = test: microbe, parasite or virus in culture; assay type: cell-based
[3] = system: Xanthomonas campestris (XAN); test: In-vitro plant fungicide test; assay type: cell-based; design: inhibition of growth: concentration or dose not given beside the values; details: Xanthomonas campestris
[4] = system: Phytophthora capsici (PHY); test: In-vitro plant fungicide test; assay type: cell-based; details: Phytophthora capsici
Septoria nodorum (SEP) = test: In-vitro plant fungicide test; assay type: cell-based; details: Parastagonospora nodorum
PSH = test: In-vitro plant fungicide test; assay type: cell-based; details: Table IVb, read-out: % Control at (ppm) indicated PSH
[5] = Table IVb, read-out: % Control at (ppm) indicated XAN

Question: How did the MIC (Aspergillus niger (ANIG)) turn out when `C[C@H](N)C(=O)N[C@@H](COCc1ccccc1)C(=O)OCC#CI` [Compound 19, L-alanyl-O-benzyl-L-serine iodopropargyl ester trifluoroacetate] was run?
Answer: < 0.8 µg/mL

Question: And the MIC [1]?
Answer: 100 µg/mL

Question: What about the MIC (THREE FUNGI; Aspergillus niger, pH 5, read-out: MIC ANIG, Aspergillus niger, serial dilutions from 50 ppm, read after 8 days of incubation) of the same compound?
Answer: 50 µg/mL

Question: What about the MIC (THREE FUNGI; Aureobasidium pullulans, pH 5, read-out: MIC APUL, Aureobasidium pullulans, serial dilutions from 50 ppm, read after 8 days of incubation) of the same compound?
Answer: 50 µg/mL

Question: And the MIC (THREE FUNGI; Gloeophyllum trabeum, pH 5, read-out: MIC GTRA, Gloeophyllum trabeum, serial dilutions from 50 ppm, read after 8 days of incubation)?
Answer: 50 µg/mL

Question: What about the inhibition of growth at 1.5 ppm (UST; 1.5 ppm) of the same compound?
Answer: 0%

Question: What about the inhibition of growth at 3 ppm (UST; 3 ppm) of the same compound?
Answer: 0%

Question: What about the inhibition of growth at 6 ppm (UST; 6 ppm) of the same compound?
Answer: 100%

Question: And the inhibition of growth at 25 ppm (UST; 25 ppm)?
Answer: 100%

Question: What about the inhibition of growth at 0.2 ppm (UST; .2 ppm) of the same compound?
Answer: 0%

Question: What about the inhibition of growth at 0.4 ppm (UST; .4 ppm) of the same compound?
Answer: 0%

Question: And the inhibition of growth at 0.8 ppm (UST; .8 ppm)?
Answer: 0%

Question: What about the inhibition of growth (UST) of the same compound?
Answer: 100%

Question: What about the MIC [2] of the same compound?
Answer: 50 µg/mL

Question: What about the inhibition of growth at 25 ppm (Fusarium roseum (FUS); read-out: % Control at 25 ppm FUS, 25 ppm, Table IVa, *=Phytotoxic) of the same compound?
Answer: 100%

Question: And the inhibition of growth at 1.5 ppm (Fusarium roseum (FUS); read-out: % Control at (ppm) indicated FUS, 1.5 ppm, Table IVb)?
Answer: 0%

Question: And the inhibition of growth at 3 ppm (Fusarium roseum (FUS); read-out: % Control at (ppm) indicated FUS, 3 ppm, Table IVb)?
Answer: 0%

Question: What about the inhibition of growth at 6 ppm (Fusarium roseum (FUS); read-out: % Control at (ppm) indicated FUS, 6 ppm, Table IVb) of the same compound?
Answer: 0%

Question: What about the inhibition of growth at 12 ppm (Fusarium roseum (FUS); read-out: % Control at (ppm) indicated FUS, 12 ppm, Table IVb) of the same compound?
Answer: 0%

Question: And the inhibition of growth at 25 ppm (Fusarium roseum (FUS); read-out: % Control at (ppm) indicated FUS, 25 ppm, Table IVb)?
Answer: 0%

Question: What about the inhibition of growth at 0.2 ppm (Fusarium roseum (FUS); read-out: % Control at (ppm) indicated FUS, .2 ppm, Table IVb) of the same compound?
Answer: 0%

Question: And the inhibition of growth at 0.4 ppm (Fusarium roseum (FUS); read-out: % Control at (ppm) indicated FUS, .4 ppm, Table IVb)?
Answer: 0%

Question: What about the inhibition of growth at 0.8 ppm (Fusarium roseum (FUS); read-out: % Control at (ppm) indicated FUS, .8 ppm, Table IVb) of the same compound?
Answer: 0%

Question: And the inhibition of growth at 1.5 ppm (Rhizoctonia solani (RHI); 1.5 ppm, Table IVb, read-out: % Control at (ppm) indicated RHI)?
Answer: 0%

Question: And the inhibition of growth at 6 ppm (Rhizoctonia solani (RHI); 6 ppm, Table IVb, read-out: % Control at (ppm) indicated RHI)?
Answer: 0%

Question: And the inhibition of growth at 25 ppm (Rhizoctonia solani (RHI); Table IVa, read-out: % Control at 25 ppm RHI)?
Answer: 100%

Question: And the inhibition of growth at 25 ppm (Rhizoctonia solani (RHI); Table IVb, read-out: % Control at (ppm) indicated RHI)?
Answer: 100%

Question: And the inhibition of growth at 0.2 ppm (Rhizoctonia solani (RHI); .2 ppm, Table IVb, read-out: % Control at (ppm) indicated RHI)?
Answer: 0%

Question: What about the inhibition of growth at 0.4 ppm (Rhizoctonia solani (RHI); .4 ppm, Table IVb, read-out: % Control at (ppm) indicated RHI) of the same compound?
Answer: 0%

Question: What about the inhibition of growth at 0.8 ppm (Rhizoctonia solani (RHI); .8 ppm, Table IVb, read-out: % Control at (ppm) indicated RHI) of the same compound?
Answer: 0%

Question: And the inhibition of growth at 1.5 ppm (ALT; 1.5 ppm)?
Answer: 0%

Question: And the inhibition of growth at 3 ppm (ALT; 3 ppm)?
Answer: 50%

Question: And the inhibition of growth at 6 ppm (ALT; 6 ppm)?
Answer: 75%

Question: What about the inhibition of growth at 25 ppm (ALT; 25 ppm) of the same compound?
Answer: 100%

Question: What about the inhibition of growth at 0.2 ppm (ALT; .2 ppm) of the same compound?
Answer: 0%

Question: What about the inhibition of growth at 0.4 ppm (ALT; .4 ppm) of the same compound?
Answer: 0%

Question: What about the inhibition of growth at 0.8 ppm (ALT; .8 ppm) of the same compound?
Answer: 0%

Question: What about the inhibition of growth (ALT) of the same compound?
Answer: 100%

Question: And the inhibition of growth at 1.5 ppm (Piricularia oryzae (PIR); 1.5 ppm, read-out: % Control at (ppm) indicated PIR)?
Answer: 0%

Question: What about the inhibition of growth at 6 ppm (Piricularia oryzae (PIR); 6 ppm, read-out: % Control at (ppm) indicated PIR) of the same compound?
Answer: 0%

Question: What about the inhibition of growth at 25 ppm (Piricularia oryzae (PIR); 25 ppm, read-out: % Control at (ppm) indicated PIR) of the same compound?
Answer: 100%

Question: What about the inhibition of growth at 0.2 ppm (Piricularia oryzae (PIR); .2 ppm, read-out: % Control at (ppm) indicated PIR) of the same compound?
Answer: 0%

Question: And the inhibition of growth at 0.4 ppm (Piricularia oryzae (PIR); .4 ppm, read-out: % Control at (ppm) indicated PIR)?
Answer: 0%

Question: What about the inhibition of growth at 0.8 ppm (Piricularia oryzae (PIR); .8 ppm, read-out: % Control at (ppm) indicated PIR) of the same compound?
Answer: 0%

Question: What about the inhibition of growth at 25 ppm (Piricularia oryzae (PIR); read-out: % Control at 25 ppm PIR) of the same compound?
Answer: 100%

Question: And the inhibition of growth at 1.5 ppm ([3]; 1.5 ppm, Table IVb, read-out: % Control at (ppm) indicated XAN)?
Answer: 0%

Question: What about the inhibition of growth at 3 ppm ([3]; 3 ppm, Table IVb, read-out: % Control at (ppm) indicated XAN) of the same compound?
Answer: 0%

Question: And the inhibition of growth at 6 ppm ([3]; 6 ppm, Table IVb, read-out: % Control at (ppm) indicated XAN)?
Answer: 0%

Question: What about the inhibition of growth at 25 ppm ([3]; Table IVa, read-out: % Control at 25 ppm XAN) of the same compound?
Answer: 0%

Question: What about the inhibition of growth at 25 ppm [3, 5] of the same compound?
Answer: 0%

Question: What about the inhibition of growth at 0.2 ppm ([3]; .2 ppm, Table IVb, read-out: % Control at (ppm) indicated XAN) of the same compound?
Answer: 0%

Question: And the inhibition of growth at 0.4 ppm ([3]; .4 ppm, Table IVb, read-out: % Control at (ppm) indicated XAN)?
Answer: 0%

Question: What about the inhibition of growth at 0.8 ppm ([3]; .8 ppm, Table IVb, read-out: % Control at (ppm) indicated XAN) of the same compound?
Answer: 0%

Question: And the inhibition of growth [3, 5]?
Answer: 0%

Question: What about the inhibition of growth at 1.5 ppm ([4]; 1.5 ppm, Table IVb, read-out: % Control at (ppm) indicated PHY) of the same compound?
Answer: 0%

Question: And the inhibition of growth at 6 ppm ([4]; 6 ppm, Table IVb, read-out: % Control at (ppm) indicated PHY)?
Answer: 0%

Question: And the inhibition of growth at 25 ppm ([4]; Table IVa, read-out: % Control at 25 ppm PHY)?
Answer: 100%

Question: And the inhibition of growth at 25 ppm ([4]; Table IVb, read-out: % Control at (ppm) indicated PHY)?
Answer: 100%

Question: What about the inhibition of growth at 0.2 ppm ([4]; .2 ppm, Table IVb, read-out: % Control at (ppm) indicated PHY) of the same compound?
Answer: 0%

Question: What about the inhibition of growth at 0.4 ppm ([4]; .4 ppm, Table IVb, read-out: % Control at (ppm) indicated PHY) of the same compound?
Answer: 0%

Question: And the inhibition of growth at 0.8 ppm ([4]; .8 ppm, Table IVb, read-out: % Control at (ppm) indicated PHY)?
Answer: 0%

Question: And the inhibition of growth at 1.5 ppm (Septoria nodorum (SEP); 1.5 ppm, Table IVb, read-out: % Control at (ppm) indicated SEP)?
Answer: 50%

Question: What about the inhibition of growth at 6 ppm (Septoria nodorum (SEP); 6 ppm, Table IVb, read-out: % Control at (ppm) indicated SEP) of the same compound?
Answer: 100%

Question: And the inhibition of growth at 25 ppm (Septoria nodorum (SEP); Table IVa, read-out: % Control at 25 ppm SEP)?
Answer: 100%

Question: And the inhibition of growth at 25 ppm (Septoria nodorum (SEP); Table IVb, read-out: % Control at (ppm) indicated SEP)?
Answer: 100%

Question: What about the inhibition of growth at 0.2 ppm (Septoria nodorum (SEP); .2 ppm, Table IVb, read-out: % Control at (ppm) indicated SEP) of the same compound?
Answer: 0%

Question: And the inhibition of growth at 0.4 ppm (Septoria nodorum (SEP); .4 ppm, Table IVb, read-out: % Control at (ppm) indicated SEP)?
Answer: 0%

Question: And the inhibition of growth at 0.8 ppm (Septoria nodorum (SEP); .8 ppm, Table IVb, read-out: % Control at (ppm) indicated SEP)?
Answer: 0%

Question: And the inhibition of growth at 1.5 ppm (PSH; 1.5 ppm)?
Answer: 50%

Question: What about the inhibition of growth at 6 ppm (PSH; 6 ppm) of the same compound?
Answer: 100%

Question: And the inhibition of growth at 0.2 ppm (PSH; .2 ppm)?
Answer: 0%

Question: What about the inhibition of growth at 0.4 ppm (PSH; .4 ppm) of the same compound?
Answer: 0%

Question: What about the inhibition of growth at 0.8 ppm (PSH; .8 ppm) of the same compound?
Answer: 0%
